This is an account of results in patent publication US6828450B2, “Triptycene analogs” (Kansas State University Research Foundation, priority 2000, dated 2004).

Data set [1] relates to L1210 cells. The data set is described as follows: DNA cleavage (intact chromatin precipitation) in L1210 cells. The format is cell-based, murine. On the procedure: FIG. 19. Comparison of the concentration-dependent effects of novel TT analogs and known DNA-damaging anticancer drugs on DNA cleavage in L1210 cells in vitro. […] After lysing the cells in HLB containing 0.2% Triton X-100, the detergent-soluble DNA fragments present in the supernatants and the intact chromatin DNA remaining in the pellets were separated by centrifugation and their radioactivity estimated by LSC. Results are expressed as [cpm in supernatant/cpm in supernatant+pellet]×100 at 24 h. For untreated controls (5.3±0.6% DNA fragmentation; striped area), the supernatant is 741±79 cpm and the pellet is 13,293±1,446 cpm.
FIG. 20. Comparison of the abilities of novel TT analogs to induce DNA cleavage in L1210 cells in vitro. Cells containing prelabeled DNA were incubated at 37° C. for 24 h in the presence or absence (control) of 7 μM concentrations of the indicated compounds. The protocol of the experiment and the determination of the results were identical to those of FIG. 12.
FIG. 22. Irreversibility of the effects of novel TT analogs and known DNA-damaging anticancer drugs on DNA cleavage in L1210 cells in vitro. Cells containing prelabeled DNA were incubated at 37° C. for various periods of time in the presence or absence (control) of 10 μM TT1 or TT2 and 1.6 μM DAU or CPT. The protocol of the experiment and the determination of the results at 24 h were identical to those of FIG. 19, except that the drugs were either maintained in the medium for the whole 24-h period of incubation (open) or removed after the first 3 (striped) and 8 h (closed). After spinning and washing the appropriate samples to remove the drugs, cells were resuspended in 0.5 ml of fresh medium to complete the 24-h period of incubation in the absence of drugs. Vehicle-treated controls were similarly spun and washed at 3 and 8 h. Bars: means±SD (n=3).
Drug-induced DNA cleavage was determined by intact chromatin precipitation, using L1210, HL-60-S, HL-60-RV and HL-60-R8 cells which were prelabeled with 1 μCi of ^3H-thymidine for 2 h at 37° C., washed with 3×1 ml of ice-cold PBS, collected by centrifugation, and resuspended in fresh FCS-containing RPMI 1640 medium at a density of about 1×10^6 cells/0.5 ml for L1210 and 0.5×10^6 cells/0.5 ml for HL cells. Except when otherwise specified, such cells containing prelabeled DNA were then exposed for 24 h to TTs and drugs known to induce DNA fragmentation. After centrifugation at 200×g for 10 min to discard the drugs and wash the cells, the intact cell pellets were lysed for 30 min in 0.5 ml of HLB, centrifuged at 12,000×g for 30 min to collect the supernatants, and resuspended in 0.5 ml of HLB. After another similar centrifugation, the radioactivities in the pooled supernatants (detergent-soluble low molecular weight DNA fragments) and the pellet (intact chromatin DNA) were determined by LSC: % DNA fragmentation=[cpm in supernatant/cpm in supernatant+pellet]×100. Before being counted in 6 ml of Bio-Safe NA, the intact pelleted chromatin was incubated for 2 h at 60° C. in the presence of 0.6 ml of NCS tissue solubilizer (Amersham).

In data set [2] the test system is L1210 cells. The data set is described as follows: L1210 tumor cell proliferation assay (Coulter counter). The following applies: for inhibitory effect on L1210 cell growth: 256 nM, 4 days. Here is the method:
(§1) FIG. 1. […] For tumor cell growth and viability, L1210 cells were respectively seeded in triplicate at initial densities of 1×10^4 and 1.11×10^4 cells/0.5 ml/well in RPMI 1640 medium containing 7.5% FCS and penicillin (100 IU/ml)-streptomycin (100 μg/ml), and grown for 4 days in the presence or absence (control) of 256 nM concentrations of the indicated compounds in a humidified incubator at 37° C. with 5% CO2 in air. Cell density was monitored using a Coulter counter. […] The ability of viable cells/0.5 ml to bioreduce 0.1 ml of MTS:PMS (20:1) reagent over a 3-h incubation period at 37° C. was assessed by measuring the absorbamce of the water-soluble formazan products at A490 nm.
FIG. 3. […] The protocol of the experiment was identical to that of FIG. 1. […] Drug concentrations are plotted on a logarithmic scale.
(§2) TT0 was purchased from Aldrich (Milwaukee, Wis.). All solutions of synthetic TTs and tricyclic pyrone H10, vincristine (VCR; a gift from Lilly Researeh Laboratories, Indianapolis, Ind.) and camptothecin (CPT; from Sigma Chemical Co., St Louis, Mo.) were dissolved and diluted in dimethyl sulfoxide (DMSO), whereas daunomycin (DAU) (from Sigma) solutions were prepared in 0.1 M potassium phosphate buffer, pH 7.4, containing 0.9% NaCl. Suspension cultures of murine L1210 lymphocytic leukemia cells (American Type Culture Collection, Rockville, Md.) were maintained in continuous exponential growth by twice-a-week passage in RPMI 1640 medium supplemented with 7.5% fortified bovine calf serum (FCS; HyClone Laboratories, Logan, Utah) and penicillin (100 IU/ml)-streptomycin (100 μg/ml), and incubated in the presence or absence of drugs at 37° C. in a humidified atmosphere containing 5% CO2. […] Control cells incubated in the absence of drugs were similarly treated with vehicle only and, in every experiment, all incubates received the same volume of solvent. For drug removal, incubates were spun at 200×g for 10 min, drug-containing supernatants were discarded, and intact cells were washed thrice with 1 ml of the above RPMI 1640 culture medium and resuspended in 0.5 ml of fresh medium for further incubation.
For tumor cell growth, L1210 cells were resuspended in fresh FCS-containing RPMI 1640 medium, plated at an initial density of 1×10^4 cells/0.5 ml, and incubated in 48-well Costar cell culture plates (Costar, Cambridge, Mass.). Except when otherwise specified, cells were grown for 4 days in the presence or absence of drugs and their density was monitored every 24 h using a Coulter counter (Coulter Electronics, Luton Beds, UK).

For data set [3], the system named is L1210 cells. The data set is described as follows: cells. The following applies: for inhibitory effect on L1210 cell viability: 256 nM, 4 days; for IC50: read-out: IC50 (concentration inhibiting by 50% the viability of L1210 leukemic cells), day 4, Table 2 series. Here is the method: as §1
FIG. 4. […] Cells were seeded in triplicate at initial densities of 100,000 or 11,100 cells/0.5 ml/well and respectively incubated for 2 or 4 days in the presence or absence (control) of the indicated concentrations of drugs, which are plotted on a logarithmic scale. The ability of viable cells/0.5 ml to bioreduce 0.1 ml of MTS:PMS (20:1) reagent over a 3-h incubation period was assessed as described in FIG. 1.
as §2
L1210, HL-60-S, HL60-RV and HL-60-R8 cells suspended in FCS-containing RPMI 1640 medium were grown in 48-well Costar cell culture plates for up to 4 days in the presence or absence of drugs to evaluate drug cytotoxicity.

The test system of data set [4] is Plasmodium falciparum 3D7. The data set is described as follows: Antimalarial activity, inhibition of Plasmodium falciparum 3D7. The format is cell-based. The following applies: malaria strain 3D7.
Data set [5] deals with Malaria protease plasmepsin II (Plasmodium falciparum, UniProt P46925). The data set is described as follows: Inhibition of malaria protease plasmepsin II. The format is biochemical.
Malaria protease plasmepsin II, sequence (P46925 125-453): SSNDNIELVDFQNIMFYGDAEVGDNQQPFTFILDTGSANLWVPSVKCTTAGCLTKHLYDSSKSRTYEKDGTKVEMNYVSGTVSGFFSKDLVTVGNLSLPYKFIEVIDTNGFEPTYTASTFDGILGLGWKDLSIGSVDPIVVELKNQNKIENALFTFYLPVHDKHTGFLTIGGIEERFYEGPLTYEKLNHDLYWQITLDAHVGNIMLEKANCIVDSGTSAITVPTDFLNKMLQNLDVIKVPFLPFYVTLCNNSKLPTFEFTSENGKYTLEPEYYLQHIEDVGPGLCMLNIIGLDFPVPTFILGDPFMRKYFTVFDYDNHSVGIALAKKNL
Data set [6] in a line: Water solubility (stated in words). The format is physicochemical.
For data set [7], the system named is L1210 cells. The data set is described as follows: Mitotic index of L1210 cells. The format is cell-based, murine. The following applies: 24-h treatment; 0.2 μM VCR, 1 μM H10 (FIG. 18). Here is the method: FIG. 18. Effects of the novel TT analog TT2 and DAU on the mitotic index of L1210 cells in vitro. […] Cells (10^6/0.5 ml of RPMI 1640 medium) were incubated in triplicate for 24 h at 37° C. in the presence or absence (control) of 0.256, 0.64, 1.6 and 4 μM TT2, 0.256, 0.64 and 1.6 μM DAU, 0.2 μM VCR or 1 μM H10. After fixation with MeOH:acetic acid (3:1) and staining with 0.1% crystal violet, about 500 cells/slide were scored for mitotic figures and the mitotic index was expressed as the % of mitotic cells in drug-treated cultures divided by the % of mitotic cells in non-treated controls. The mean % of mitotic cells in control at 24 h was 1.86±0.43%.
L1210 cells (about 1×10^6/0.5 ml of FCS-containing RPMI 1640 medium) were incubated in triplicate for 24 h at 37° C. in the presence or absence of TTs or known antimitotic drugs, and collected by centrifugation at 200×g for 10 min to determine their mitotic index. For hypotonic treatment, cells were resuspended in 1 ml of 75 mM KCl for 20 min at 4° C. After fixation in 1 ml of MeOH:acetic acid (3:1), the final cell pellets were collected by centrifugation, resuspended in 75 μl of MeOH:acetic acid (3:1), dispensed onto glass slides, air dried, and stained by spreading 40 μl of 0.1% crystal violet under a coverslip. The % of cells in mitosis was determined microscopically by counting 500 cells/slides. The mitotic index was calculated as the % of mitotic cells in drug-treated cultures divided by the % of mitotic cells in non-treated controls.

Values joined by “and” are separate entries in the source; they are usually repeats but may differ in a detail not shown here. Equal entries are not always repeated.

For “9,10-Dihydro-9,10-[1′,2′]benzenoanthracene-1,4,5,8-tetraone [TT1]”, the “DNA fragmentation at 24 h after short exposure” value with L1210 cells [1] (10 μM, drug removed after 3 and 8 h) was 36-45%. Moreover, the “DNA cleavage (% DNA fragmentation)” value in the data set with L1210 cells [1] (10 μM, whole 24 h) was 45% and 40%. `COC(=O)C1=CC(=O)[C@H]2C3c4ccccc4C(c4c(OC)ccc(OC)c43)[C@H]2C1=O` (relative stereo) [TT10, (4aS*,9aR*)-5,8-Dimethoxy-2-methoxycarbonyl-4a,9,9a,10-tetrahydro-9,10-[1′,2′]benzenoanthracene-1,4-dione]: the “inhibitory effect on L1210 cell growth” value in the data set with L1210 cells [2] is given as “weak”. In the data set with L1210 cells [3], the “inhibitory effect on L1210 cell viability” value was “weak”.

On to `COC(=O)[C@@]12C(=O)C=CC(=O)[C@@H]1C1c3ccccc3C2c2c(OC)ccc(OC)c21` (relative stereo) [TT11, (4aR*,9aR*)-5,8-Dimethoxy-4a-methoxycarbonyl-9,9a,10-trihydro-9,10-[1′,2′]benzenoanthracene-1,4-dione], for which the “inhibitory effect on L1210 cell growth” value with L1210 cells [2] is “marginal”. The “inhibitory effect on L1210 cell viability” value with L1210 cells [3] was “marginal”. In the data set with L1210 cells [1] (7 μM, 24 h, control 5%), the “DNA cleavage (% DNA fragmentation)” value was determined as 7%. Take `CC[C@@]1(O)C(=O)OCc2c1cc1n(c2=O)Cc2cc3ccccc3nc2-1` [CPT, camptothecin, reference compound]: the “DNA cleavage (% DNA fragmentation)” value in the data set on L1210 cells [1] (1.6 μM, 24 h) is reported as 57%. Moreover, the “DNA fragmentation at 24 h, drug maintained or removed” value in the data set on L1210 cells [1] (1.6 μM, maintained or removed after 3 or 8 h) was 51-58%. Besides, the Emax with L1210 cells [1] (Mus musculus, L1210, concentrations of CPT higher than 1.6 μM, 24 h, read-out: DNA cleavage, plateau of maximal stimulation) lay within 60 to 70%.

`CC(C)(C)OC(=O)CCNC1=C(Br)C(=O)C2=C(C1=O)C1C3=C(C(=O)C=CC3=O)C2c2ccccc21` (stereo not drawn) [Compound 12, 2-Bromo-3-[2-(t-butoxycarbonyl)ethylamino]-9,10-dihydro-9,10-[1,2]benzenoanthracene-1,4,5,8-tetraone]: the IC50 in the data set on L1210 cells [3] was 310 nM. For the compound `O=C(O)CCNC1=C(Br)C(=O)C2=C(C1=O)C1C3=C(C(=O)C=CC3=O)C2c2ccccc21` (stereo not drawn) [Compound 13, N-(2-Bromo-9,10-dihydro-1,4,5,8-tetraoxo-9,10-[1,2]benzenoanthracene-3-yl)-3-aminopropanoic acid], in the data set with L1210 cells [3], the IC50 amounted to 1480 nM. On to `c1ccc2c(c1)C1c3ccccc3C2c2ccccc21` [TT0, triptycene], for which, in the data set with L1210 cells [2] (in vitro), the “activity against macromolecule synthesis and growth of L1210 cells” value is “inactive”.

For the compound `COC1=C(Br)C(=O)C2=C(C1=O)C1C3=C(C(=O)C=CC3=O)C2c2ccccc21` (stereo not drawn) [TT13, 2-Bromo-3-methoxy-9,10-dihydro-9,10-[1′,2′]benzenoanthracene-1,4,5,8-tetraone], in the data set on L1210 cells [3], the IC50 came to 291 nM. Regarding `CNC1=C(Br)C(=O)C2=C(C1=O)C1C3=C(C(=O)C=CC3=O)C2c2ccccc21` (stereo not drawn) [TT14, 2-Bromo-3-(methylamino)-9,10-dihydro-9,10-[1′,2′]benzenoanthracene-1,4,5,8-tetraone], the IC50 in the data set on L1210 cells [3] was 430 nM; in data set [4], 4700 nM; in data set [5] it was 9700 nM. In the case of `CCOC(=O)CCNC1=C(Br)C(=O)C2=C(C1=O)C1C3=C(C(=O)C=CC3=O)C2c2ccccc21` (stereo not drawn) [TT17, 2-Bromo-3-[2-(ethoxycarbonyl)ethylamino]-9,10-dihydro-9,10-[1′,2′]benzenoanthracene-1,4,5,8-tetraone], the IC50 in the data set with L1210 cells [3] was 240 nM.

As to `O=C(O)CCNC1=C(O)C(=O)C2=C(C1=O)C1C3=C(C(=O)C=CC3=O)C2c2ccccc21` (stereo not drawn) [TT21], the “water solubility” value in data set [6] is on record as “water soluble”. Regarding `CC[C@]1(O)C[C@H]2CN(CCc3c([nH]c4ccccc34)[C@@](C(=O)OC)(c3cc4c(cc3OC)N(C=O)[C@H]3[C@@](O)(C(=O)OC)[C@H](OC(C)=O)[C@]5(CC)C=CCN6CC[C@]43[C@@H]65)C2)C1` [VCR, vincristine, reference compound], the “increase in the mitotic index” value in the data set with L1210 cells [7] stood at 16 fold. Turning to `CC(C)c1nc(CN(C)C(=O)N[C@H](C(=O)N[C@@H](Cc2ccccc2)C[C@H](O)[C@H](Cc2ccccc2)NC(=O)OCc2cncs2)C(C)C)cs1` [ritonavir, reference compound], the IC50 in data set [4] (Plasmodium falciparum) is 9700 nM.
